From BigSolDB 2.1

Clc1cc(Cl)cc(Cl)c1
solubility (mole fraction)
Conditions | in acetone | in cyclohexane | in ethyl acetate | in isobutanol | in isopropanol | in n-butanol | in n-propanol | in toluene
273.15 K | 0.0419 | – | 0.0928 | 0.0246 | 0.0144 | 0.036 | 0.0211 | 0.169
275.65 K | 0.0472 | – | 0.102 | 0.028 | 0.0167 | 0.0406 | 0.0238 | 0.184
278.15 K | 0.0524 | – | 0.113 | 0.0321 | 0.0195 | 0.0467 | 0.0273 | 0.199
280.65 K | 0.0581 | 0.131 | 0.123 | 0.0367 | 0.0225 | 0.0529 | 0.0313 | 0.218
283.15 K | 0.0644 | 0.147 | 0.137 | 0.042 | 0.0256 | 0.0592 | 0.0359 | 0.24
285.65 K | 0.0718 | 0.165 | 0.151 | 0.0478 | 0.0297 | 0.0679 | 0.0406 | 0.26
288.15 K | 0.079 | 0.186 | 0.164 | 0.0545 | 0.0339 | 0.0767 | 0.0466 | 0.287
290.65 K | 0.0876 | 0.207 | 0.179 | 0.0616 | 0.0384 | 0.0852 | 0.0532 | 0.311
293.15 K | 0.0963 | 0.231 | 0.195 | 0.0708 | 0.0441 | 0.0969 | 0.0598 | 0.337
295.65 K | 0.106 | 0.255 | 0.213 | 0.0804 | 0.0509 | 0.107 | 0.0677 | 0.368
298.15 K | 0.116 | 0.286 | 0.234 | 0.091 | 0.058 | 0.122 | 0.0764 | 0.399
300.65 K | 0.129 | 0.318 | 0.253 | 0.102 | 0.0649 | 0.136 | 0.0853 | 0.427
303.15 K | 0.14 | 0.35 | 0.274 | 0.117 | 0.074 | 0.15 | 0.0973 | 0.463
305.65 K | 0.154 | 0.391 | 0.298 | 0.131 | 0.0849 | 0.166 | 0.109 | 0.5
308.15 K | 0.171 | 0.434 | 0.325 | 0.147 | 0.0969 | 0.185 | 0.122 | 0.539
310.65 K | 0.192 | 0.481 | 0.352 | 0.166 | 0.11 | 0.207 | 0.138 | 0.575
313.15 K | 0.213 | 0.528 | 0.38 | 0.191 | 0.127 | 0.233 | 0.158 | 0.619
